Literature values as cited in patent publication US11225464B2, “Compositions and methods for the treatment of gastrointestinal polyps” (CELLIX BIO PRIVATE LIMITED, priority 2016, dated 2022).

Tests used:
[1] = long-term users
duodenal adenomas = settings: FAP patients
colorectal adenomas = settings: FAP patients; long-term use; colon as well as rectum of patients after colectomy

SMILES	cardiovascular effects [1]	effect on duodenal polyposis / number of duodenal adenomas (duodenal adenomas)	reduction of the number of colorectal adenomas (colorectal adenomas)
CS(=O)(=O)c1ccc(C2=C(c3ccccc3)C(=O)OC2)cc1 [rofecoxib]	cardiovascular effects (myocardial infarction or stroke) have been described	–	–
CC1=C(CC(=O)O)c2cc(F)ccc2/C1=C\c1ccc([S+](C)[O-])cc1 (stereo not drawn) [sulindac]	–	not in duodenal polyposis	> 50%
